Measured values: patent publication US6569881B1, “Substituted benzimidazole, the production thereof and the use thereof as means against parasitic protozoa” (Bayer Aktiengesellschaft, priority 1999, dated 2003)

Columns and labels:
Type in all cases: in vivo, chicken chicks
[1] = tested on: Eimeria acervulina, Eimeria maxima and Eimeria tenella; assay: Cage experiments coccidiosis/chicks, mixed experimental infection
Protocol: (§1) The efficacy of the compounds according to the invention can be confirmed, for example, in cage experiments using the following experimental arrangement, in which the animals are treated with the respective individual components and with the mixtures of the individual components.
(§2) An active compound-containing feed is prepared in such a way that the required amount of active compound is thoroughly mixed with a nutritionally balanced animal feed, e.g. with the chick feed indicated below.
(§3) 8 to 12 day-old male chicken chicks raised under coccidea-free conditions (e.g. LSL Brinkschulte/Senden) receive the compounds according to the invention (test substances) from 3 days before (day -3) the infection (=a.i.) until 8 (9) days after the infection (=p.i.) with the feed in the concentration indicated in ppm. Three animals are kept in each cage. Per dose, one to a number of groups of this type are employed. Infection is carried out by means of a stomach tube directly into the crop using approximately 100,000 sporulated oocysts of Eimeria acervulina and with in each case approximately 30,000 oocysts of E. maxima and 40,000 sporulated oocysts of E. tenella. These are highly virulent strains. The exact infectious dose is adjusted such that if possible one of three experimentally infected untreated chicks dies due to infection. For the assessment of the efficacy, the following criteria are taken into consideration: weight increase from the start of the experiment to the end of the experiment, death rate due to infection, macroscopic assessment of the faeces with respect to diarrhoea and excretion of blood on days 5 and 7 p.i. (grade 0 to 6), macroscopic grade of the intestinal mucous membrane, in particular of the cecums (grade 0 to 6) and the oocyst excretion and also the proportion (in %) of the oocysts sporulating within 24 hours. The number of oocysts in the faeces was determined with the aid of the McMaster counting chamber (see Engelbrecht and coworkers “Parasitologische Arbeitsmethoden in Medizin und Veterinärmedizin, [Parasitological working methods in medicine and veterinary medicine] Akademie-Verlag, Berlin (1965)). The individual findings are related to the untreated noninfected control groups and an overall grade is calculated (cf. A. Haberkorn (1986), pp. 263 to 270 in Research in Avian Coccidiosis ed L. R. McDougald, L. P. Joyner, P. L. Long Proceedings of the Georgia Coccidiosis Conference Nov, 18-20, 1985 Athens/Ga. USA).
In the column “ppm”, the concentration of the active compound employed in the feed is indicated in ppm.
In the column “mortality”, the percentage of the animals which have died is indicated under % and the number of the animals which have died/animals employed in the experiment is indicated under n.
In the column “weight % of not inf. control”, the ratio of the weight of the treated animals to the weight of the noninfected control group is indicated.
(§4) In the columns “dropping scores”, “lesion score” and “oocyst control”, individual details of the action are given.
In the column “% efficacy”, the overall rating is assessed; 0% means no action, 100% means complete action.

[2] = tested on: Eimeria tenella; assay: Cage experiments coccidiosis/chicks, Eimeria tenella part of the mixed infection; settings: for Efficacy against Eimeria tenella (grade): third symbol of cell; on Efficacy against Eimeria tenella (grade): key: 2 = complete action; 1 = weak action; 0 = inactive; D = death
Protocol: as §1, §2, §3, §4

[3] = tested on: Eimeria maxima; assay: Cage experiments coccidiosis/chicks, Eimeria maxima part of the mixed infection; settings: for Efficacy against Eimeria maxima (grade): second symbol of cell; on Efficacy against Eimeria maxima (grade): key: 2 = complete action; 1 = weak action; 0 = inactive; D = death
Protocol: as §1, §2, §3, §4

[4] = tested on: Eimeria acervulina; assay: Cage experiments coccidiosis/chicks, Eimeria acervulina part of the mixed infection; settings: for Efficacy against Eimeria acervulina (grade): first symbol of cell; on Efficacy against Eimeria acervulina (grade): key: 2 = complete action; 1 = weak action; 0 = inactive; D = death
Protocol: as §1, §2, §3, §4

[5] = 0 ppm in feed (so in the source)
[6] = 0 ppm in feed (so in the source), grade 0 to 6
[7] = 2.5 ppm in feed, listed as Ex. 13
[8] = 5 ppm in feed, listed as Ex. 13
[9] = 10 ppm in feed, listed as Ex. 13

`Cc1oc(=O)oc1Cn1c(C(F)(F)F)nc2c(Cl)cc(C(F)(F)F)cc21` [Example 11] was tested, and the “% efficacy tot.” value [1, 5] was 39%, the mortality % [1, 5] was 0% and the “mortality n (died/employed)” value [1, 5] was 0/3. For the same compound, the “oocyst in % of inf. control tot.” value [1, 5] was 34%, the “weight % of not inf. control” value [1, 5] was 52% and the dropping scores [1, 6] was 6. The lesion score [1, 6] was 6, the “% efficay tot.” value ([1]; 5 ppm) was 11% and the dropping scores ([1]; 5 ppm) was 6. The lesion score ([1]; 5 ppm) was 6, the mortality % ([1]; 5 ppm) was 33% and the mortality n ([1]; 5 ppm) was 1/3. The “oocyst in % of inf. control tot.” value ([1]; 5 ppm) was 47 % of inf. control, the “weight % of not inf. control” value ([1]; 5 ppm) was 42 % of not inf. control and the “% efficacy tot.” value ([1]; 5 ppm in feed) was 0%. For the same compound, the mortality % ([1]; 5 ppm in feed) was 66%, the “mortality n (died/employed)” value ([1]; 5 ppm in feed) was 2/3 and the “oocyst in % of inf. control tot.” value ([1]; 5 ppm in feed) was >100%. For the same compound, the “weight % of not inf. control” value ([1]; 5 ppm in feed) was 17%, the dropping scores ([1]; 5 ppm in feed, grade 0 to 6) was 6 and the lesion score ([1]; 5 ppm in feed, grade 0 to 6) was 6. For the same compound, the “% efficay tot.” value ([1]; 7.5 ppm) was 7%, the dropping scores ([1]; 7.5 ppm) was 6 and the lesion score ([1]; 7.5 ppm) was 6. For the same compound, the mortality % ([1]; 7.5 ppm) was 0%, the mortality n ([1]; 7.5 ppm) was 0/3 and the “oocyst in % of inf. control tot.” value ([1]; 7.5 ppm) was 75 % of inf. control. The “weight % of not inf. control” value ([1]; 7.5 ppm) was 58 % of not inf. control, the “% efficay tot.” value ([1]; 10 ppm) was 22% and the dropping scores ([1]; 10 ppm) was 6. The lesion score ([1]; 10 ppm) was 6, the mortality % ([1]; 10 ppm) was 33% and the mortality n ([1]; 10 ppm) was 1/3. The “oocyst in % of inf. control tot.” value ([1]; 10 ppm) was 72 % of inf. control, the “weight % of not inf. control” value ([1]; 10 ppm) was 41 % of not inf. control and the “% efficacy tot.” value ([1]; 25 ppm in feed) was 79%. For the same compound, the mortality % ([1]; 25 ppm in feed) was 0%, the “mortality n (died/employed)” value ([1]; 25 ppm in feed) was 0/3 and the “oocyst in % of inf. control tot.” value ([1]; 25 ppm in feed) was 0%. For the same compound, the “weight % of not inf. control” value ([1]; 25 ppm in feed) was 67%, the dropping scores ([1]; 25 ppm in feed, grade 0 to 6) was 2 and the lesion score ([1]; 25 ppm in feed, grade 0 to 6) was 0. The “oocyst in % of inf. control ten.” value [2, 5] was 27%, the “oocyst in % of inf. control ten.” value ([2]; 5 ppm) was 91 % of inf. control and the “oocyst in % of inf. control ten.” value ([2]; 5 ppm in feed) was >100%. The “oocyst in % of inf. control ten.” value ([2]; 7.5 ppm) was >100 % of inf. control, the “oocyst in % of inf. control ten.” value ([2]; 10 ppm) was 44 % of inf. control and the “oocyst in % of inf. control ten.” value ([2]; 25 ppm in feed) was 0%. The “Efficacy against Eimeria tenella (grade)” value ([2]; Dose 5 ppm) was 0, the “Efficacy against Eimeria tenella (grade)” value ([2]; Dose 10 ppm) was 1 and the “Efficacy against Eimeria tenella (grade)” value ([2]; Dose 25 ppm) was 2. The “oocyst in % of inf. control max.” value [3, 5] was 0%, the “oocyst in % of inf. control max.” value ([3]; 5 ppm) was >100 % of inf. control and the “oocyst in % of inf. control max.” value ([3]; 5 ppm in feed) was 0%. For the same compound, the “oocyst in % of inf. control max.” value ([3]; 7.5 ppm) was >100 % of inf. control, the “oocyst in % of inf. control max.” value ([3]; 10 ppm) was 0 % of inf. control and the “oocyst in % of inf. control max.” value ([3]; 25 ppm in feed) was 0%. For the same compound, the “Efficacy against Eimeria maxima (grade)” value ([3]; Dose 5 ppm) was 0, the “Efficacy against Eimeria maxima (grade)” value ([3]; Dose 10 ppm) was 1 and the “Efficacy against Eimeria maxima (grade)” value ([3]; Dose 25 ppm) was 2. For the same compound, the “oocyst in % of inf. control ac.” value [4, 5] was 38%, the “oocyst in % of inf. control ac.” value ([4]; 5 ppm) was 19 % of inf. control and the “oocyst in % of inf. control ac.” value ([4]; 5 ppm in feed) was >100%. The “oocyst in % of inf. control ac.” value ([4]; 7.5 ppm) was 22 % of inf. control, the “oocyst in % of inf. control ac.” value ([4]; 10 ppm) was 91 % of inf. control and the “oocyst in % of inf. control ac.” value ([4]; 25 ppm in feed) was 0%. The “Efficacy against Eimeria acervulina (grade)” value ([4]; Dose 5 ppm) was 0, the “Efficacy against Eimeria acervulina (grade)” value ([4]; Dose 10 ppm) was 1 and the “Efficacy against Eimeria acervulina (grade)” value ([4]; Dose 25 ppm) was 2.
For `Cc1oc(=O)oc1Cn1c(C(F)(F)F)nc2cc(C(F)(F)F)c(C(F)(F)F)cc21` [Example 13], the “% efficacy tot.” value ([1]; 2.5 ppm in feed) was 15%, the mortality % ([1]; 2.5 ppm in feed) was 33% and the “mortality n (died/employed)” value ([1]; 2.5 ppm in feed) was 1/3. For the same compound, the “oocyst in % of inf. control tot.” value ([1]; 2.5 ppm in feed) was 41%, the “weight % of not inf. control” value ([1]; 2.5 ppm in feed) was 61% and the dropping scores ([1]; 2.5 ppm in feed, grade 0 to 6) was 6. The lesion score ([1]; 2.5 ppm in feed, grade 0 to 6) was 6, the “% efficacy tot.” value [1, 7] was 16% and the mortality % [1, 7] was 0%. The “mortality n (died/employed)” value [1, 7] was 0/3, the “oocyst in % of inf. control tot.” value [1, 7] was 57% and the “% efficacy tot.” value ([1]; 5 ppm in feed) was 50%. The mortality % ([1]; 5 ppm in feed) was 33%, the “mortality n (died/employed)” value ([1]; 5 ppm in feed) was 1/3 and the “oocyst in % of inf. control tot.” value ([1]; 5 ppm in feed) was 4%. The “weight % of not inf. control” value ([1]; 5 ppm in feed) was 74%, the dropping scores ([1]; 5 ppm in feed, grade 0 to 6) was 6 and the lesion score ([1]; 5 ppm in feed, grade 0 to 6) was 6. The lesion score ([1]; 5 ppm in feed, grade 0 to 6, listed as Ex. 13) was 4.6, the “% efficacy tot.” value [1, 8] was 32% and the mortality % [1, 8] was 0%. The “mortality n (died/employed)” value [1, 8] was 0/3, the “oocyst in % of inf. control tot.” value [1, 8] was 26% and the “% efficacy tot.” value ([1]; 7.5 ppm in feed) was 74%. For the same compound, the mortality % ([1]; 7.5 ppm in feed) was 0%, the “mortality n (died/employed)” value ([1]; 7.5 ppm in feed) was 0/3 and the “oocyst in % of inf. control tot.” value ([1]; 7.5 ppm in feed) was 0%. The “weight % of not inf. control” value ([1]; 7.5 ppm in feed) was 81%, the dropping scores ([1]; 7.5 ppm in feed, grade 0 to 6) was 6 and the lesion score ([1]; 7.5 ppm in feed, grade 0 to 6) was 5.3. For the same compound, the “% efficacy tot.” value ([1]; 10 ppm in feed) was 73%, the mortality % ([1]; 10 ppm in feed) was 0% and the “mortality n (died/employed)” value ([1]; 10 ppm in feed) was 0/3. For the same compound, the “oocyst in % of inf. control tot.” value ([1]; 10 ppm in feed) was 0%, the “weight % of not inf. control” value ([1]; 10 ppm in feed) was 83% and the dropping scores ([1]; 10 ppm in feed, grade 0 to 6) was 6. The lesion score ([1]; 10 ppm in feed, grade 0 to 6) was 4.3, the lesion score ([1]; 10 ppm in feed, grade 0 to 6, listed as Ex. 13) was 5.3 and the “% efficacy tot.” value [1, 9] was 78%. For the same compound, the “weight % of not inf. control” value [1, 9] was 76%, the “oocyst in % of inf. control ten.” value ([2]; 2.5 ppm in feed) was 27% and the “oocyst in % of inf. control ten.” value [2, 7] was >100%. For the same compound, the “oocyst in % of inf. control ten.” value ([2]; 5 ppm in feed) was 3%, the “oocyst in % of inf. control ten.” value [2, 8] was 27% and the “oocyst in % of inf. control ten.” value ([2]; 7.5 ppm in feed) was 0%. The “oocyst in % of inf. control ten.” value ([2]; 10 ppm in feed) was 0%, the “Efficacy against Eimeria tenella (grade)” value ([2]; Dose 5 ppm) was 1 and the “Efficacy against Eimeria tenella (grade)” value ([2]; Dose 10 ppm) was 2. The “Efficacy against Eimeria tenella (grade)” value ([2]; Dose 25 ppm) was “D D D”, the “oocyst in % of inf. control max.” value ([3]; 2.5 ppm in feed) was 0% and the “oocyst in % of inf. control max.” value [3, 7] was 55%. For the same compound, the “oocyst in % of inf. control max.” value ([3]; 5 ppm in feed) was 0%, the “oocyst in % of inf. control max.” value [3, 8] was 36% and the “oocyst in % of inf. control max.” value ([3]; 7.5 ppm in feed) was 0%. The “oocyst in % of inf. control max.” value ([3]; 10 ppm in feed) was 0%, the “Efficacy against Eimeria maxima (grade)” value ([3]; Dose 5 ppm) was 1 and the “Efficacy against Eimeria maxima (grade)” value ([3]; Dose 10 ppm) was 2. The “Efficacy against Eimeria maxima (grade)” value ([3]; Dose 25 ppm) was “D D D”, the “oocyst in % of inf. control ac.” value ([4]; 2.5 ppm in feed) was 55% and the “oocyst in % of inf. control ac.” value [4, 7] was 33%. For the same compound, the “oocyst in % of inf. control ac.” value ([4]; 5 ppm in feed) was 5%, the “oocyst in % of inf. control ac.” value [4, 8] was 25% and the “oocyst in % of inf. control ac.” value ([4]; 7.5 ppm in feed) was 0%. The “oocyst in % of inf. control ac.” value ([4]; 10 ppm in feed) was 0%, the “Efficacy against Eimeria acervulina (grade)” value ([4]; Dose 5 ppm) was 2 and the “Efficacy against Eimeria acervulina (grade)” value ([4]; Dose 10 ppm) was 2. The “Efficacy against Eimeria acervulina (grade)” value ([4]; Dose 25 ppm) was “D D D”.
